Measurements as given in US20090280141A1, “Streptococcal Genes” (priority 2000, published 2009).

How the values were obtained:
S. pneumoniae strains [1] = assay: Streptonigrin bacterial survival assay; type: cell-based; details: 60 minutes incubation with 2.5 μg ml^-1 streptonigrin
Method: (§1) For bacterial survival streptonigrin assays, stocks of S. pneumoniae strains grown in Chelex-THY broth and stored at −70° C. were defrosted on ice, pelleted by centrifugation at 20000 g at 4° C. and resuspended in THY to which 2.5 μg ml^−1 of streptonigrin (Sigma) was then added. The reactions were incubated at 37° C., and aliquots of the reaction cultures taken at 40 and 60 minutes after adding streptonigrin were diluted and plated. Cfu at each time point were expressed as a percentage of the cfu prior to adding streptonigrin and the results presented as a ratio of the wild-type strain's results. To assess sensitivity to streptonigrin discs, S. pneumoniae strain stocks cultured in Chelex-THY broth were plated on RPMIm plates with or without 50 μM FeCl3 and 400 μM DIP supplementation at a density of several thousand colonies per plate. Antibiotic discs impregnated with 5 μg streptonigrin were placed onto the plates. After incubation for 20 hours at 37° C. in 5% CO2, the width of the zone of growth inhibition surrounding each disc was measured and confidence intervals for three separate results calculated.

S. pneumoniae strains [2] = assay: Streptonigrin disc sensitivity (zone of growth inhibition); type: cell-based
Method: as §1

S. pneumoniae = assay: Sit1D and Sit2A immunisation experiment with IP S. pneumoniae challenge; type: in vivo; details: BALBc mice, 10 ug protein IP three times, challenged IP with 10,000 S. pneumoniae cells
Method: BALBc were mice given 10 ug of protein (expressed in pQE30 expression vectors in E. coli and purified using the His-tag) via IP, on three occasions separated by 7-10 days, and then challenged 2 weeks after the last immunisation with 10,000 S. pneumoniae cells inoculated IP.
The other proteins were Sit1D, Sit2A, Sit1D combined with Sit2A, Sit1D combined with Pdb, and Sit2A combined with Pbd.

Row | Molecule | fold more cells surviving than wild type cells (S. pneumoniae strains [1]; Sit1A- strain) | fold more cells surviving than wild type cells (S. pneumoniae strains [1]; Sit1A-/Sit2A- strain) [fold] | fold more cells surviving than wild type cells (S. pneumoniae strains [1]; Sit2A- strain) | sensitivity to 5 ug streptonigrin discs (S. pneumoniae strains [2]; Sit1A-/Sit2A- double mutant, in the presence of 400 μM DIP) | zone of growth inhibition surrounding a streptonigrin disc, versus wild-type strain (S. pneumoniae strains [2]; Sit- strains on RPMIm plates) | protection against S. pneumoniae challenge (survival, FIG. 7) (S. pneumoniae)
1 | COC1=C(N)C(=O)c2nc(-c3nc(C(=O)O)c(C)c(-c4ccc(OC)c(OC)c4O)c3N)ccc2C1=O [streptonigrin] | Approximately 10 fold | ~1000 | Approximately 10 fold | completely resistant | smaller | –
2 | Sit1D: Protein encoded by S. pneumoniae gene Sit1D (SEQ ID NO. 8), putative iron-binding lipoprotein; His-tagged, expressed in E. coli (protein, listed as Salmonella pneumoniae, His tag; CDS (1)..(966), His-tagged, expressed in E. coli) MKTSLKLYFTALVASFLLLLGACSTNSSTSQTETSSSAPTEVTIKSSLDEVKLSKVPEKIVTFDLGAADTIRALGFEKNIVGMPTKTVPTYLKDLVGTVKNVGSMKEPDLEAIAALEPDLIIASPRTQKFVDKFKEIAPTVLFQASKDDYWTSTKANIESLASAFGETGTQKAKEELTKLDKSIQEVATKNESSDKKALAILLNEGKMAAFGAKSRFSFLYQTLKFKPTDTKFEDSRHGQEVSFESVKEINPDILFVINRTLAIGGDNSSNDGVLENALIAETPAAKNGKIIQLTPDLWYLSGGGLESTKLMIEDIQKALK | – | – | – | – | – | as protective as Pdb
